Experimental data published in patent US20230293404A1, “Compositions Comprising Natural Polymers and One or More (Bio)-Alkanediols” (Symrise AG, priority 2020, published 2023).

Key:
[1] = tested on: microbial load of natural polymers; test: Microbial load of mixtures of natural polymers with alkanediols (plating, CFU count); format: cell-based, bacteria
Method: The following tests were performed to show the influence of different alkanediols on the microbial load of natural polymers.
A selection of natural polymers as specified in Table 1 was systematically analyzed in combination with different 1,2-alkanediols and 2,3-alkanediols (0.5%). The polymers were chosen to be representative from different polymer classes:
A mixture of the natural polymer (concentration as recommended by supplier) with water and 1,2-alkanediol (0.5%) or 2,3-alkanediol (0.5%) or a mixture of 1,2-alkanediol and 2,3-alkanediol (0.5% final concentration) was prepared, as representative of a cold formulation preparation processes, and directly sampled for determination of microbial load. Additionally, the mixtures were stored at 40° C. and again sampled for microbial load after 2 days and 7 days.
The microbial load of the mixtures was determined by plating 1000 μl (or respective dilutions of the material) on an agar plate based on universal bacterial growth medium (Caseinpepton-Sojamehlpepton-Bouillon, Merck 1.05459+Agar No. 1, Oxoid LP0011). The plates were then incubated at 37° C. for 5 days and then photo documented. In parallel, bacterial colonies were counted (CFU—colony forming units per ml).

[2] = Maximum solubility of alkanediols in water (visual assessment); format: physicochemical; settings: assessed at ambient temperature after 24 h storage at 5° C.; visual observation
Excerpt: The water solubility of a substance is the saturation mass concentration of the substance in water at a given temperature. The determination of the solubility in water relates to essentially pure substances which are stable in water and not volatile.
For the determination of the maximum water solubility of an alkanediol, water and different concentrations of the respective alkanediol were blended by stirring. […] The determination of whether the alkanediol has dissolved in water is based entirely on visual observation.

[3] = Physical state of alkanediols and alkanediol mixtures at RTP; format: physicochemical; settings: at RTP (room temperature, normal pressure); FIG. 3 and FIG. 4
Excerpt: The term “liquid alkanediol” within the context of the present invention means an alkanediol component which is liquid at room or ambient temperature and under normal pressure, i.e. standard RTP conditions.
FIG. 3 is a photograph showing from left to right samples of the liquid 1,2-pentanediol, 1,2-hexanediol, 1,2-heptanediol, 2,3-heptanediol, 2,3-octanediol and 2,3-undecanediol in comparison to the solid 1,2-octanediol, 1,2-undecanediol, 1,2-nonanediol and the liquid 2,3-nonanediol. The first six alkanediols are liquid at RTP, whereas 1,2-octanediol, 1,2-nonanediol and 1,2-undecanediol are solid substances at RTP; 2,3-nonanediol is also liquid at RTP.
FIG. 4 is a representative photograph of samples of mixtures of 1,2-alkanediols with the respective 2,3-alkanediol. All mixtures are liquid. They are shown in the following order: 1,2-heptanediol (95%)+2,3-heptanediol (5%), 1,2-octanediol (95%)+2,3-octanediol (5%), and 1,2-nonanediol (95%)+2,3-nonanediol (5%).

## CCCCCC(O)C(C)O (centres unmarked) [2,3-octanediol]
[1]; Covathick (0.5%) in water + 0.5% 2,3-alkanediol, 2 days storage at 40° C.
  Bacterial load (colony forming units): 0 CFU per mL
[1]; Covathick (0.5%) in water + 0.5% 2,3-alkanediol, 7 days storage at 40° C.
  Bacterial load (colony forming units): 0 CFU per mL
[1]; Covathick (0.5%) in water + 0.5% 2,3-alkanediol, fresh
  Bacterial load (colony forming units): 4 CFU per mL
[1]; Genuvisco (0.5%) in water + 0.5% 2,3-alkanediol, 2 days storage at 40° C.
  Bacterial load (colony forming units): 0 CFU per mL
[1]; Genuvisco (0.5%) in water + 0.5% 2,3-alkanediol, 7 days storage at 40° C.
  Bacterial load (colony forming units): 0 CFU per mL
[1]; Genuvisco (0.5%) in water + 0.5% 2,3-alkanediol, fresh
  Bacterial load (colony forming units): 5 CFU per mL
[1]; Polycos-N 75 (0.5%) in water + 0.5% 2,3-alkanediol, 2 days storage at 40° C.
  Bacterial load (colony forming units): 0 CFU per mL
[1]; Polycos-N 75 (0.5%) in water + 0.5% 2,3-alkanediol, 7 days storage at 40° C.
  Bacterial load (colony forming units): 0 CFU per mL
[1]; Polycos-N 75 (0.5%) in water + 0.5% 2,3-alkanediol, fresh
  Bacterial load (colony forming units): 1 CFU per mL
[1]; Xanthan Gum (0.5%) in water + 0.5% 2,3-alkanediol, 2 days storage at 40° C.
  Bacterial load (colony forming units): 0 CFU per mL
[1]; Xanthan Gum (0.5%) in water + 0.5% 2,3-alkanediol, 7 days storage at 40° C.
  Bacterial load (colony forming units): 0 CFU per mL
[1]; directly after preparation of the mixtures as well as after 7 days storage, Table 3
  Effect on the microbial load of the natural polymer solutions (in words): superior antimicrobial activity
[2]
  Maximum solubility in water: 1.5 % by weight
[3]
  Physical state: liquid
